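How tested: cells in 96-well plates exposed to compound for 48 hours at five concentrations. At the TGI there is no net growth.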
Columns and labels:
Assay in all cases: NCI tumour cell line growth inhibition, 48 h
[1] = tested on: SR leukemia
[2] = tested on: U251 CNS
[3] = tested on: A498 renal
[4] = tested on: MOLT-4 leukemia
[5] = tested on: NCI-H23 lung
[6] = tested on: BT-549 breast
[7] = tested on: 786-0 renal
[8] = tested on: HCC-2998 colon
[9] = tested on: SN12C renal
[10] = tested on: SF-539 CNS
[11] = tested on: ACHN renal
[12] = tested on: CAKI-1 renal
[13] = tested on: M14 melanoma
[14] = tested on: PC-3 prostate
[15] = tested on: IGROV1 ovarian
[16] = tested on: NCI/ADR-RES ovarian
[17] = tested on: SK-MEL-28 melanoma
[18] = tested on: HOP-92 NSCLC
[19] = tested on: SK-MEL-5 melanoma
[20] = tested on: UACC-62 melanoma
[21] = tested on: UO-31 renal
[22] = tested on: COLO 205 colon
[23] = tested on: K-562 leukemia
[24] = tested on: UACC-257 melanoma
[25] = tested on: MDA-MB-435
[26] = tested on: SK-OV-3 ovarian
[27] = tested on: EKVX NSCLC
[28] = tested on: CCRF-CEM leukemia
[29] = tested on: NCI-H522 lung
[30] = tested on: A549 NSCLC
[31] = tested on: NCI-H226 lung
[32] = tested on: HT29 colon
[33] = tested on: KM12 colon
[34] = tested on: SF-295 CNS
[35] = tested on: TK-10 renal
[36] = tested on: HCT-15 colon
[37] = tested on: MALME-3M melanoma
[38] = tested on: DU-145 prostate
[39] = tested on: HL-60(TB) leukemia
[40] = tested on: OVCAR-3 ovarian
[41] = tested on: SNB-75 CNS
[42] = tested on: OVCAR-5 ovarian
[43] = tested on: RPMI-8226 leukemia
[44] = tested on: SW-620 colon
[45] = tested on: MDA-N
[46] = tested on: HCT-116 colon
[47] = tested on: HOP-62 NSCLC
[48] = tested on: MCF7 breast
[49] = tested on: OVCAR-4 ovarian
[50] = tested on: RXF 393 renal
[51] = tested on: NCI-H460 lung
[52] = tested on: SK-MEL-2 melanoma
[53] = tested on: T-47D breast
[54] = tested on: OVCAR-8 ovarian
[55] = tested on: MDA-MB-231 breast
[56] = tested on: SNB-19 CNS
[57] = tested on: LOX IMVI melanoma
[58] = tested on: SF-268 CNS
[59] = tested on: HS 578T breast

Which TGI [1] does the source give for COc1cc(/C=C2\C(=O)N(c3cc(Cl)ccc3Cl)C(c3ccccc3)S2(=O)=O)cc(OC)c1OC (centres undefined) here?
Its TGI is > 100 µM.

What about the TGI [2] of the same molecule?
Its TGI is > 100 µM.

What about the TGI [3] of the same molecule?
The TGI was > 100 µM.

And the TGI [4]?
Its TGI is 99.4 µM.

What about the TGI [5] of the same molecule?
Its TGI is > 100 µM.

What about the TGI [6] of the same molecule?
Its TGI is > 100 µM.

And the TGI [7]?
The TGI was > 100 µM.

And the TGI [8]?
The TGI was > 100 µM.

What about the TGI [9] of the same molecule?
Its TGI is > 100 µM.

And the TGI [10]?
The TGI was > 100 µM.

What about the TGI [11] of the same molecule?
The TGI was > 100 µM.

What about the TGI [12] of the same molecule?
Its TGI is > 100 µM.

And the TGI [13]?
The TGI was > 100 µM.

And the TGI [14]?
The TGI was > 100 µM.

What about the TGI [15] of the same molecule?
Its TGI is > 100 µM.

What about the TGI [16] of the same molecule?
Its TGI is > 100 µM.

What about the TGI [17] of the same molecule?
The TGI was > 100 µM.

And the TGI [18]?
Its TGI is > 100 µM.

What about the TGI [19] of the same molecule?
The TGI was > 100 µM.

What about the TGI [20] of the same molecule?
The TGI was > 100 µM.

And the TGI [21]?
Its TGI is > 100 µM.

What about the TGI [22] of the same molecule?
The TGI was > 100 µM.

And the TGI [23]?
The TGI was > 100 µM.

And the TGI [24]?
The TGI was > 100 µM.

What about the TGI [25] of the same molecule?
Its TGI is 96.2 µM.

What about the TGI [26] of the same molecule?
The TGI was > 100 µM.

What about the TGI [27] of the same molecule?
Its TGI is > 100 µM.

And the TGI [28]?
Its TGI is > 100 µM.

What about the TGI [29] of the same molecule?
Its TGI is > 100 µM.

What about the TGI [30] of the same molecule?
Its TGI is > 100 µM.

What about the TGI [31] of the same molecule?
The TGI was > 100 µM.

What about the TGI [32] of the same molecule?
The TGI was > 100 µM.

And the TGI [33]?
The TGI was > 100 µM.

What about the TGI [34] of the same molecule?
Its TGI is > 100 µM.

And the TGI [35]?
Its TGI is > 100 µM.

And the TGI [36]?
Its TGI is > 100 µM.

What about the TGI [37] of the same molecule?
Its TGI is > 100 µM.

What about the TGI [38] of the same molecule?
Its TGI is > 100 µM.

And the TGI [39]?
Its TGI is 51.7 µM.

And the TGI [40]?
Its TGI is > 100 µM.

What about the TGI [41] of the same molecule?
Its TGI is > 100 µM.

And the TGI [42]?
The TGI was > 100 µM.

What about the TGI [43] of the same molecule?
The TGI was > 100 µM.

And the TGI [44]?
The TGI was > 100 µM.

What about the TGI [45] of the same molecule?
The TGI was 66.1 µM.

And the TGI [46]?
Its TGI is > 100 µM.

And the TGI [47]?
Its TGI is > 100 µM.

And the TGI [48]?
The TGI was > 100 µM.

And the TGI [49]?
The TGI was > 100 µM.

And the TGI [50]?
The TGI was > 100 µM.

What about the TGI [51] of the same molecule?
Its TGI is > 100 µM.

What about the TGI [52] of the same molecule?
The TGI was > 100 µM.

What about the TGI [53] of the same molecule?
Its TGI is > 100 µM.

What about the TGI [54] of the same molecule?
The TGI was > 100 µM.

And the TGI [55]?
The TGI was > 100 µM.

What about the TGI [56] of the same molecule?
Its TGI is > 100 µM.

And the TGI [57]?
The TGI was > 100 µM.

CN1CCN([C@H]2C[C@H]3[C@@H]4CC=C5C[C@@H](N6CCCC6)CC[C@]5(C)[C@H]4CC[C@]3(C)[C@H]2O)CC1 was tested. Which TGI [1] did it give?
The TGI was 16.4 µM.

What about the TGI [2] of the same molecule?
The TGI was > 100 µM.

What about the TGI [3] of the same molecule?
The TGI was > 100 µM.

And the TGI [4]?
Its TGI is > 100 µM.

And the TGI [5]?
The TGI was > 100 µM.

And the TGI [6]?
Its TGI is > 100 µM.

What about the TGI [7] of the same molecule?
The TGI was > 100 µM.

And the TGI [8]?
The TGI was 97.8 µM.

And the TGI [9]?
Its TGI is > 100 µM.

What about the TGI [10] of the same molecule?
The TGI was 30.6 µM.

What about the TGI [11] of the same molecule?
Its TGI is > 100 µM.

And the TGI [13]?
Its TGI is 29.8 µM.

What about the TGI [14] of the same molecule?
Its TGI is > 100 µM.

What about the TGI [15] of the same molecule?
The TGI was > 100 µM.

What about the TGI [16] of the same molecule?
The TGI was > 100 µM.

What about the TGI [17] of the same molecule?
Its TGI is 55.8 µM.

What about the TGI [18] of the same molecule?
The TGI was > 100 µM.

And the TGI [19]?
Its TGI is 39.9 µM.

What about the TGI [20] of the same molecule?
Its TGI is > 100 µM.

What about the TGI [21] of the same molecule?
Its TGI is > 100 µM.

And the TGI [22]?
Its TGI is > 100 µM.

What about the TGI [23] of the same molecule?
The TGI was 34.2 µM.

What about the TGI [24] of the same molecule?
The TGI was 48.3 µM.

And the TGI [25]?
Its TGI is > 100 µM.

And the TGI [26]?
The TGI was > 100 µM.

And the TGI [27]?
The TGI was > 100 µM.

And the TGI [28]?
Its TGI is > 100 µM.

And the TGI [29]?
Its TGI is > 100 µM.

What about the TGI [30] of the same molecule?
The TGI was > 100 µM.

And the TGI [31]?
The TGI was > 100 µM.

And the TGI [32]?
The TGI was > 100 µM.

And the TGI [58]?
The TGI was > 100 µM.

And the TGI [33]?
The TGI was > 100 µM.

What about the TGI [34] of the same molecule?
The TGI was > 100 µM.

What about the TGI [35] of the same molecule?
Its TGI is > 100 µM.

And the TGI [36]?
The TGI was > 100 µM.

What about the TGI [37] of the same molecule?
The TGI was 35.8 µM.

What about the TGI [59] of the same molecule?
Its TGI is > 100 µM.

What about the TGI [39] of the same molecule?
The TGI was 47.9 µM.

And the TGI [40]?
Its TGI is > 100 µM.

What about the TGI [41] of the same molecule?
The TGI was > 100 µM.

And the TGI [42]?
The TGI was > 100 µM.

What about the TGI [43] of the same molecule?
The TGI was 53.6 µM.

And the TGI [44]?
The TGI was > 100 µM.

And the TGI [45]?
Its TGI is 55 µM.

And the TGI [46]?
Its TGI is > 100 µM.

What about the TGI [47] of the same molecule?
Its TGI is > 100 µM.

What about the TGI [48] of the same molecule?
The TGI was > 100 µM.

What about the TGI [49] of the same molecule?
Its TGI is > 100 µM.

And the TGI [50]?
Its TGI is 42.8 µM.

What about the TGI [51] of the same molecule?
The TGI was > 100 µM.

What about the TGI [52] of the same molecule?
Its TGI is > 100 µM.

What about the TGI [53] of the same molecule?
The TGI was > 100 µM.

And the TGI [54]?
The TGI was > 100 µM.

And the TGI [55]?
Its TGI is > 100 µM.

What about the TGI [56] of the same molecule?
The TGI was > 100 µM.

And the TGI [57]?
Its TGI is 39.1 µM.

From PubChem BioAssay (NCI)
